Data on two molecules can be found in US20230107216A1, “PANTETHEINE DERIVATIVES AND USES THEREOF” (Comet Therapeutics, Inc., priority 2018, published 2023).

The test system of experiment [1] is Propionic Acidemia (PA) primary fibroblasts GM00371. As to the kind of experiment: Mitochondrial respiration, XFe96 Extracellular Flux Analyzer (OCR/ECAR), PA fibroblasts GM00371. Format: cell-based. The settings on record: Homo sapiens, Fibroblast.
Experiment [2] concerns primary fibroblasts (healthy controls and PA, MMA, BCKDK, PDH, VLCAD, LS, PC, GA, VLCFA, KSS, FXN, HD). As to the kind of experiment: Measurement of ROS (H2DCFDA) in primary fibroblasts. Format: cell-based, human. The settings on record: Homo sapiens, procedure Example 812, Assay Condition C. The method in brief:
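Patient and healthy-control primary fibroblasts switched to supplemented DMEM 24 h before assay, then treated with compound (10 μM) plus H2DCFDA (22 μM) for 2 h (PA, MMA lines) or 24 h (other lines). Kinetic fluorescence at 492/527 nm over 60 min; only live cells analysed.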

Experiment [3] relates to Leigh Syndrome (LS) primary fibroblasts GM03672. As to the kind of experiment: NADP+/NADPH (NADP/NADPH-Glo), Leigh fibroblasts GM03672. Format: cell-based. The settings on record: Homo sapiens, Fibroblast, Leigh GM03672 P8, assay condition B (1 mM glucose, 2 mM L-glutamine, 1 mM pyruvate, 10% FBS), 24h, read-out: Increase in Total NADP+ + NADPH. The method, then:
Primary adherent fibroblasts were cultured in minimum essential medium (MEM) (Gibco, 25030081) supplemented with 2 mM L-Glutamine (Gibco, 25030081), 15% fetal bovine serum (FBS) (Gibco, 26400044) and 1% penicillin/streptomycin (Gibco, 5140122) at 37° C. and 5% CO2. Cells were collected for either passaging or experiment at ˜70-80% confluence. Cells were obtained by trypsinization and seeded in cell culture microplates either white plate (Thermo Fisher Scientific, 152028) for luminescent measurement or black plate (Thermo Fisher Scientific, 165305) for fluorescent based read out for different assays listed below. Cells were obtained by trypsinization and […] were seeded and allowed to adhere for 16-18 hours to have confluency around 70-80% in the cell well with culture media. After 24 hours prior to measurements (37° C., 5% CO2) media was changed to Dulbecco's Modified Eagle Medium (DMEM, Agilent Seahorse cat #103575-100) with the appropriate supplements as stated below.
Primary fibroblasts assayed were Propionic Acidemia (PA) (GM03590 Coriell Institute for Medical Research, Tsi 6337 Trans-Hit Bio), Methylmalonic Acidemia (MMA) (Tsi 5224 Trans-Hit Bio), Subnormal activation of pyruvate dehydrogenase complex (PDH) (GM01503 Coriell Institute for Medical Research), Very long-chain acyl-CoA dehydrogenase (VLCAD) (GM17475), Leigh Syndrome (LS) (GM03672, GM13411 Coriell Institute for Medical Research), Pyruvate Carboxylase Deficiency (PC) (GM00444 Coriell Institute for Medical Research). 10 μM of Compounds were added for 2 hours in PA, MMA lines and for 24h for the other fibroblast lines.
Assay was performed according to manufacturer instructions (NADP+/NADPH-Glo Assay Promega, G9082). Assay required a plate for total measurement of NADP+/NADPH and a plate for individual measurement of NADP+ or NADPH. For every assay a 12-point standard curve is prepared ranging from 400 nM to 0.625 nM. Media is removed and replaced with 50 μl of PBS for both assays.
For individual NADP+/NADPH measurements, 50 μl of 1% DTAB (Sigma, D5047) (cell lysis reagent) in 0.2N NaOH was added to the plates and 100 μl of lysate was split into two plates with 50 μl each from which ratio of NADP/NADPH can be calculated. 25 μl of 0.4N HCl were added to the NADP+ plates and both NADP+ and NADPH plates were heated at 60° C. for 15 minutes. The acid and heat treatment destroyed NADPH allowing individual NADP+ measurements while heating in basic conditions destroys NADP+ allowing individual NADPH measurement. After 15 minutes plates were allowed to come to room temperature and Trizma base (Sigma, T1699) was added to the NADP+ plates to neutralize the acid and HCl Trizma hydrochloride (Sigma, T2694) was added to the NADPH plates. The NADNADPH glo reagent was prepared by adding 125 μl of NAD cycling substrate, 125 μl of reductase, 125 μl of reductase substrate, 125 μl NAD cycling enzyme to a total of the 25 ml of NAD GLO reagent. 1:1 ratio of total volume of reagent was added to the individual NADP+, NADPH measurements (total 100 μl) and 50 μl were added for the total NAD/NADPH measurements. Luminescence was measured for 30-60 minutes within the linear range.
A total dead cell count was performed as described in Example 817 and only alive cells were used for analysis.

The test system of experiment [4] is primary fibroblasts GM00649, GM06225, GM00612, GM00444, GM03672. As to the kind of experiment: MMP, ROS and ATP multiplex (ArrayScan). Format: cell-based. The settings on record: Homo sapiens, Fibroblast; Leigh GM03672; procedure Example 838; 50 μM (table line r25); read-out: Decreased ROS by at least 10%. The method, then: Cell culture and treatments. Primary adherent fibroblasts were cultured in minimum essential medium (MEM) (Gibco, 25030081) supplemented with 2 mM L-Glutamine (Gibco, 25030081), 15% fetal bovine serum (FBS) (Gibco, 26400044) and 1% penicillin/streptomycin (Gibco, 5140122) at 37° C. and 5% CO2. Cells were collected for either passaging or experiment at ˜70-80% confluence. Cells were obtained by trypsinization and seeded at 10000 cells/well in cell culture microplates (Seahorse Bioscience, 101085-004) and allowed to adhere for 16 hours in culture media. After media was refreshed with DMEM (Agilent Seahorse 103575-100) supplemented with 1 mM glucose and 10% FBS (Gibco, 26400044). At the end of the incubation period, the cells were loaded with the relevant dye/antibody for each cell health marker. The assay provided simultaneous measurement of cell health parameters including cell count, ROS formation (DHE), mitochondrial membrane potential (MitoTracker®) and cellular ATP content (CellTiter-Glo®, Promega). The plates were then scanned using an automated fluorescent cellular imager, ArrayScan® (Thermo Scientific Cellomics). Assay conditions were optimized by one skilled in the art.
Primary cells used in this example were obtained from Coriell Institute for Medical Research and consisted of GM00649, MSUD (Maple Syrup Urine Disease) Tyle IA; GM06225, Kearns-Sayre Syndrome; GM00612, MSUD (Maple Syrup Urine Disease) Tyle II GM00444, Pyruvate Carboxylase Deficiency and GM03672, Leigh Syndrome.

The subject of experiment [5] is HepG2 cells. As to the kind of experiment: Glucose uptake (Glucose Uptake-Glo). The class given is cell-based. The settings on record: Homo sapiens, 50 uM, read-out: % increase in Glucose Uptake.
Experiment [6] deals with Venular Endothelial cells (HUVEC) (4H system). Description: BioMAP 4H system (IL-4 and histamine). Format: cell-based, human. The settings on record: 10 uM; procedure of Example 826.
For experiment [7], the system named is Peripheral blood mononuclear cells co-cultured with venular endothelial cells (HUVEC) (LPS system). Description: BioMAP LPS system. Format: cell-based, human. The settings on record: procedure of Example 827.
Experiment [8] relates to Peripheral blood mononuclear cells co-cultured with venular endothelial cells (Sag system). Description: BioMAP Sag system (T-cell ligands). The class given is cell-based, human. The settings on record: 10 uM; procedure of Example 828. How it is done: The BioMAP platform (BioMAP® Diversity PLUS® Panel from Eurofins) is an in vitro phenotypic profiling technology that screened the compounds of the present disclosure (hereafter indicated as test agents) in human primary cell-based systems modelling complex tissue and disease states. The BioMAP assays were performed using the Eurofin's BioMAP Technology Platform as (see references 1 to 13 in the example 824 section) to model different diseases on primary cell-based model systems. These systems consisted of either single primary cell types or co-culture cells. Adherent cell types were cultured or co-cultured in 96 or 384-well plates until confluence followed by the addition of compounds prepared in DMSO at a final concentration of ≤0.1%. In each cell-based system, primary cells from heathy donors (2-6 donors) were pooled and treated with compounds at 1 and 10 μM dose 1h prior to stimulation and remain in culture as indicated in Example 825, Example 826, Example 827, Example 828, Example 829, Example 830, Example 831, Example 832, Example 833, Example 834, Example 835, Example 836 and Example 837. For on the BioMAP® Diversity PLUS® Panel, please see the following references, which are incorporate herein.
Following the general procedure as described in Example 824, Peripheral blood mononuclear cells were co-cultured with venular endothelial cells and treated with soluble antigen (T-cell ligands) (Sag system) in the presence or absence of compounds to model autoimmune and chronic inflammation. Biomarkers read out were; MCP-1, CD38, CD40, E-selectin, CD69, IL-8, MIG, PBMC cytotoxicity, Proliferation and SRB.

Experiment [9] deals with Bronchial epithelial cells co-cultured with dermal fibroblast (BF4T system). As to the kind of experiment: BioMAP BF4T system (TNFα and IL-4). The class given is cell-based, human. The settings on record: Homo sapiens, 24 h; 10 uM; procedure of Example 830; read-out: % increase in VCAM-1.
Experiment [10] deals with Bronchial epithelial cells (BE3C system). As to the kind of experiment: BioMAP BE3C system (IL-1β, TNFα, IFNγ). The settings on record: Homo sapiens, Epithelial cell, 24 h; 10 uM; procedure of Example 831; read-out: % decrease in MMP-1. Format: cell-based, human.
The subject of experiment [11] is Coronary artery smooth muscle cells (CASM3C system). As to the kind of experiment: BioMAP CASM3C system (IL-1β, TNFα, IFNγ). Format: cell-based, human.
The subject of experiment [12] is Dermal fibroblasts (HDF3CGF system). As to the kind of experiment: BioMAP HDF3CGF system (IL-1β, TNFα, IFNγ, EGF, bFGF, PDGF-BB). Format: cell-based, human. The settings on record: Homo sapiens, Fibroblast, 72 h; 1 uM; read-out: % increase in 72 Hour Proliferation.
The test system of experiment [13] is Peripheral blood mononuclear cells co-cultured with B-cells (BT system). As to the kind of experiment: cells. The settings on record: Homo sapiens, 72 h, read-out: % decrease in sIL-17.

Structures are written as SMILES. Read-outs that look alike come from different tables or passages of the source.

`CC(C)(CO)[C@@H](OC(=O)CN)C(=O)NCCC(=O)NCCSC(=O)CCC(=O)O` [Compound 1292, 4-[(2-[3-[(2R)-2-[(2-aminoacetyl)oxy]-4-hydroxy-3,3-dimethylbutanamido]propanamido]ethyl)sulfanyl]-4-oxobutanoic acid]: the activation at 10 µM in [1] (assay condition D (1 mM glucose, 10% FBS), 10 μM, read-out: Increase in Spare Capacity AUC) is not below 30%; in experiment [3] it was not below 10%. In addition, the inhibition at 10 µM was not below 30% in [2] (Fibroblast, KSS GM06225, read-out: Decreased ROS by at least 30%); not below 10% in [2] (Fibroblast, Leigh GM13411, read-out: Decreased ROS by at least 10%); not below 10% in experiment [2] (FXN GM04078, read-out: Decreased ROS by at least 10%); not below 30% in experiment [2] (FXN GM04078, read-out: Decreased ROS by at least 30%). The inhibition at 50 µM in [4] is not below 10%.

Take `CCC(=O)OCC(C)(C)[C@@H](O)C(=O)NCCC(=O)NCCSC(=O)CCC(=O)O` [Compound 157, 4-[(2-[3-[(2R)-2-hydroxy-3,3-dimethyl-4-(propanoyloxy)butanamido]propanamido]ethyl)sulfanyl]-4-oxobutanoic acid]: the activation at 50 µM was not below 10% in experiment [1] (assay condition C (10 mM glucose, 10% FBS), 50 μM, read-out: Increase in Maximal Respiratory Capacity AUC) and not below 20% in [5]. Also, in experiment [6], the “% decrease in MCP-1” value is listed as not below 10%. In experiment [7] (1 uM), the “% increase in Tissue Factor” value is listed as not below 10%. Also, the inhibition at 10 µM in experiment [7] (Homo sapiens, HUVEC, 24 h, 10 uM, read-out: % decrease in IL-1α) is not below 10%; in experiment [7] (Homo sapiens, HUVEC, 24 h, 10 uM, read-out: % decrease in TissueFactor), not below 10%; in experiment [10], not below 10%. For the same molecule, the activation at 10 µM in experiment [7] (Homo sapiens, HUVEC, 24 h, 10 uM, read-out: % increase in sTNFα) was not below 10%; in experiment [9], not below 10%. Also, the “% increase in Proliferation” value in [8] is given as not below 10%. In [11] (1 uM, procedure of Example 832), the “% decrease in Proliferation” value is not below 10%. In addition, the “% decrease in HLA-DR” value in experiment [11] (10 uM) is reported as not below 10%. In addition, the activation at 1 µM in experiment [12] was not below 10%. The inhibition at 1 µM in experiment [13] is not below 10%.
